According to patent US11975005B2, “Treatment of respiratory diseases” (TIANLI BIOTECH PTY LTD, priority 2015, dated 2024):

Tests used:
[1] = test system: GRE-dependent gene expression; assay: Glucocorticoid-induced gene expression in BEAS-2B cells; type: cell-based, human
Text: (§1) The methods used in Examples 1 to 5 (and 10, 19, 20) are similar to those reported in Salem et al 2012 (Br J Pharmacol. 166:2036-2048) and again in Keenan et al 2014 (Respiratory Research, e15:55) in which methods for cell culture, GRE assays and gene expression measurements are fully described. Additional methods for growth of respiratory syncytial virus (RSV) and rhinovirus (RV) are described in Collins et al 2007 (Respir Physiol Neurobiol. 2007 Jun. 15; 156(3):345-52.) and by Xatzipsalti and papdopoulos, 2007 (Contrib Microbiol. 2007; 14:33-41).
Data are presented as the means and SEM of 4 independent experiments. *P<0.05, cf corresponding Dex 30 nM response. […] Thus, TNFα contribution to glucocorticoid resistance, may be independent of TGFβ. The resistance is exemplified by the epithelial sodium channel alpha subunit SCNN1a which assembles into a Na channel that is thought to contribute to water reabsorption from the airspaces that are flooded during acute lung injury.
TGFβ suppression ranged in magnitude amongst the genes selected for analysis. […] TGFβ and Dex synergise in increasing the expression of PAI-1 (FIG. 24B).

[2] = test system: glucocorticoid response element (GRE) activity; assay: GRE activity / GRE reporter in BEAS-2B cells; type: cell-based, human; conditions: BEAS-2B cells; RV16 0.1 or 1.0 MOI; SB431542 1 μM
Description: Data are presented as the means and SEM of 3 independent experiments. *P<0.05, cf corresponding Dex 30 nM response.
as §1

[3] = test system: human lung fibroblasts; assay: bFGF/TGFβ proliferation of human lung fibroblasts (viable cell number); type: cell-based; conditions: 48 h
Text: Experiments described in the current Example and Example 14 involved culture of human parenchymal fibroblasts, measurement of their proliferation and gene expression response, the methods for which are detailed in Schuliga et al 2009 (Am J Respir Cell Mol Biol. 2009; 41(6):731-41). Interaction between TGFβ and bFGF in human lung fibroblasts. […] An interaction previously characterized in airway smooth muscle cultures is that TGFβ reduces the proliferative effects of bFGF. A similar finding is observed in human lung fibroblasts, whereby TGFβ reduces the bFGF mitogenic effects.

[4] = test system: RSV; assay: 5 day model of RSV infection, treatments from day 1; type: in vivo, mice; conditions: administered from day 1
[5] = target: CK1ε (Homo sapiens, UniProt P49674); assay: CK1ε inhibition (IC50); type: biochemical
Sequence of CK1ε (P49674 whole entry): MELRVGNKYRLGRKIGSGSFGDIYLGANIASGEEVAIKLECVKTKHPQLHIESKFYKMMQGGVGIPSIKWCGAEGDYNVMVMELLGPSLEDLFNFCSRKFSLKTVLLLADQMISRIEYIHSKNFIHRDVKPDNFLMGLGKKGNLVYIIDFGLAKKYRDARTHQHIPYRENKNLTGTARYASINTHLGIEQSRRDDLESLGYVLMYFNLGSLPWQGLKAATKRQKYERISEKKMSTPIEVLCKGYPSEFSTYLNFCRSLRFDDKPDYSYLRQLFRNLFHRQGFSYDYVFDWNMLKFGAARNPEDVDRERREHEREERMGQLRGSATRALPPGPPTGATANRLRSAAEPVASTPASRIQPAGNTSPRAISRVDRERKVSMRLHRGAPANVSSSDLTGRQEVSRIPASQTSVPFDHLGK

[6] = target: T1, ALK5 (Homo sapiens, UniProt P36897); assay: ALK5 inhibition (IC50); type: biochemical
T1 sequence (P36897 34-503): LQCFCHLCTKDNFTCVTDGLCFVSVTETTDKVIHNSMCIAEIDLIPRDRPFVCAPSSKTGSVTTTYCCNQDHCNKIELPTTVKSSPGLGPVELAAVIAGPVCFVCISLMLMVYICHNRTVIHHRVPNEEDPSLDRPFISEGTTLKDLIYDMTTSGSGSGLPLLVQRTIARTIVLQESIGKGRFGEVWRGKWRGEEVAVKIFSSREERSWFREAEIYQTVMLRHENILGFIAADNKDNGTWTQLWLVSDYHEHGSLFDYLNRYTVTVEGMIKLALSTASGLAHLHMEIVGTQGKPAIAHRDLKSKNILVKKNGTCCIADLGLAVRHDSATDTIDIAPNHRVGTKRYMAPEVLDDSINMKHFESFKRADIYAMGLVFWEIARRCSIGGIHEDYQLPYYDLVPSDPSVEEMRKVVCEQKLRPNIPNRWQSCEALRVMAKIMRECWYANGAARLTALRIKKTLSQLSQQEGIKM

[7] = FIG. 6A, BEAS-2B, SB431542 1 μM, PF670462 10 μM
[8] = human lung fibroblasts, PF4800567 1.0 μM

| SMILES | suppression of Dex (30 nM) gene expression response (SCNN1a) induced by IL-13/IL-4 ([1]; BEAS-2B cells, IL-13/IL-4 at 10 ng/ml, PF670462 1 or 10 μM, SB431542 1 μM) | impairment of Dexamethasone 30 nM GILZ gene expression responses by RV16 infection ([1]; BEAS-2B cells, RV16 1.0 MOI, pretreatment) | suppression of Dex (30 nM) gene expression response (SCNN1a) induced by the combination TNFα, IL-13 and IL-4 ([1]; BEAS-2B cells, each at 0.1 ng/ml, PF670462 1 or 10 μM, SB431542 1 μM) | TGFβ suppression of glucocorticoid-induced CDKN1C (p57kip2) expression ([1]; BEAS-2B, Dex 100 nM, PF670462 1-10 μM) | levels of GILZ in RV infected cells [1, 7] | levels of GILZ in uninfected cells [1, 7] | RV infection-induced decrease of Dex-induced GILZ expression ([1]; FIG. 6B, BEAS-2B, SB431542 3 μM, PF670462 3 μM) | impairment of Dexamethasone 30 nM GRE responses by Rhinovirus (RV16) infection [2] | effect of TGFβ on bFGF mitogenesis ([3]; human lung fibroblasts from donors without IPF, viable cell number) | accumulation of inflammatory cells in the BAL fluid [4] | IC50 [5] [µM] | IC50 [6] [µM] | bFGF induced mitogenesis [3, 8] | bFGF induced mitogenesis in the presence of TGFβ [3, 8] |
| --- | --- | --- | --- | --- | --- | --- | --- | --- | --- | --- | --- | --- | --- | --- |
| NC(=O)c1ccc(-c2nc(-c3ccc4c(c3)OCO4)c(-c3ccccn3)[nH]2)cc1 [SB431542] | some impact | greatly diminished | no detectable effect | completely blocked | increased | but not in uninfected cells | prevented | prevented | able to block | – | – | – | – | – |
| O=C(NC1CCOCC1)c1ccc(-c2cc(-c3c[nH]nc3-c3ccccn3)ccn2)cc1 [GW788388] | – | – | – | – | – | – | – | – | – | no activity | 18.6 | – | – | – |
| Nc1ncnc2c1c(COc1cccc(Cl)c1)nn2C1CCOCC1 [PF4800567] | – | – | – | – | – | – | – | – | – | – | 0.011 | 4.13 | reduced | remained suppressed |
